Key:
S. aureus strain USA300 = assay: One-hour killing assay with or without retinoic acid; type: cell-based, Staphylococcus aureus; conditions: MRSA USA300, 1 h, Tris pH 7.2, 37 °C, triplicate
Experimental: (§1) Unless stated otherwise, the standard conditions for killing assays involved statically treating exponential phase bacteria at approximately 5 × 10^5 CFU/mL with a lysin-derived peptide at 25 μg/mL in a 96-well microtiter plate under aerobic (S. aureus) or anaerobic conditions (C. acnes and S. aureus) in 20 mM Tris (Fisher Scientific), pH 7.2, for 1 h at 37 °C. For dose–response killing assays, peptide concentrations ranging from 1 up to 125 μg/mL were tested.
For measuring the effect of retinoid on peptide bactericidal activity, S. aureus strain USA300 at 10^6 CFU/mL was treated with or without P156 at 25 μg/mL in buffer supplemented with all-trans-retinoic acid (Sigma-Aldrich) at 0.01–0.1% (w/v).
Each killing assay comprised an untreated control (bacteria absent peptide) for every condition tested. After 1 h, 100 μL directly from the sample, as well as 5 μL of each dilution from a 10-fold serial dilution, were plated on either TSB agar (for S. aureus killing assays using aerobic conditions), rTSB agar (for S. aureus killing assays using anaerobic conditions), or rTSB agar with 2% glycerol (for C. acnes killing assays) in order to quantitate bacterial viability. The LOD for each experiment was 10 CFU/mL, with one exception. […] For statistical analysis, p-values were calculated using an unpaired t-test due to each lysin or peptide dose being compared individually to the untreated group. […]

[1] = tested on: C. acnes strain ATCC 6919; assay: Storage stability: bactericidal activity after thawing from -80 °C and four weeks at 4 °C; type: physicochemical, Cutibacterium acnes; conditions: thawed from -80 °C, stored four weeks at 4 °C; read-out bactericidal activity at 25 μg/mL against C. acnes ATCC 6919
Experimental: (§2) Temperature-based killing assays were performed by initially thawing a frozen aliquot of P156, which was then stored at 4 °C for a month. This was the only experiment where an aliquot of a lysin-derived peptide was stored for an extended period of time at a temperature other than −80 °C. Next, C. acnes strain ATCC 6919 was treated with the above-mentioned P156 aliquot in buffer at 15 °C to 40 °C. For these experiments, separate aliquots of both the bacteria at 10^6 CFU/mL and peptide at 50 μg/mL were initially equilibrated to the temperature being assayed for 5 min in 1.7 mL microcentrifuge tubes using an EchoTherm chilling/heating plate (Torrey Pines Scientific, Carlsbad, CA, USA). The bacteria and peptide were then mixed together 1:1 in a microcentrifuge tube, yielding respective final concentrations of 5 × 10^5 CFU/mL and 25 μg/mL, and subsequently incubated in the chilling/heating plate for 1 h.

S. aureus = assay: One-hour killing assay against S. aureus (aerobic or anaerobic growth); type: cell-based, Staphylococcus aureus; conditions: 20 mM Tris, pH 7.2, 1 h, 37 °C
Experimental: (§3) Bacterial strains used in this study are outlined in Table 2 and were stored at −80 °C. C. acnes strains were grown in a BACTRON900 anaerobic chamber (Sheldon Manufacturing Inc., Cornelius, OR, USA) at 37 °C to exponential phase in reduced Trypticase Soy Broth (rTSB, BD Biosciences, Franklin Lakes, NJ, USA) supplemented with 2% (v/v) glycerol. S. aureus strains were grown either aerobically or anaerobically at 37 °C to the exponential phase in TSB (aerobic growth) or rTSB (anaerobic growth).
as §1
(§4) Each killing assay comprised an untreated control (bacteria absent peptide) for every condition tested. After 1 h, 100 μL directly from the sample, as well as 5 μL of each dilution from a 10-fold serial dilution, were plated on either TSB agar (for S. aureus killing assays using aerobic conditions), rTSB agar (for S. aureus killing assays using anaerobic conditions), or rTSB agar with 2% glycerol (for C. acnes killing assays) in order to quantitate bacterial viability. The LOD for each experiment was 10 CFU/mL, with one exception. For the dose–response killing assay evaluating the collection of peptides against C. acnes, only the 10-fold serial dilutions from each sample were plated, resulting in an LOD of 200 CFU/mL. Experiments performed under anaerobic conditions used agar plates that were reduced overnight. Additionally, buffers for these particular assays were made fresh the day of the experiment and reduced for 2 h prior to use. Error bars correspond to the standard error of the mean (SEM) of two or three biological replicates. For statistical analysis, p-values were calculated using an unpaired t-test due to each lysin or peptide dose being compared individually to the untreated group. Additionally, to ensure clarity in presenting statistical significance, we used three types of statistical markers to highlight differences: ns, not significant, * p < 0.05 and a <3-log CFU reduction (with respect to the untreated group), ** p < 0.05 and a ≥3-log CFU reduction (with respect to the untreated group).

[2] = tested on: C. acnes strain ATCC 6919; assay: Time-kill assay; type: cell-based, Cutibacterium acnes; conditions: 25 μg/mL, 20 mM Tris, pH 7.2, 37 °C, three biological replicates
Experimental: Using an EchoTherm chilling/heating plate, separate aliquots of both C. acnes strain ATCC 6919 at 10^6 CFU/mL and P156 at 50 μg/mL in 20 mM Tris, pH 7.2, were equilibrated to 37 °C for 10 min in 1.7 mL microcentrifuge tubes. The bacteria and peptide were then combined 1:1 in a microcentrifuge tube to obtain final concentrations of 5 × 10^5 CFU/mL and 25 μg/mL, respectively. An untreated control (bacteria without peptide) was also included. The samples were incubated for a total of 30 min at 37 °C. At 1, 5, 10, 15, 20, 25 and 30 min, an aliquot was removed. Both 100 μL directly from the sample, as well as 5 μL of each dilution from a 10-fold serial dilution, were plated on rTSB agar supplemented with 2% (v/v) glycerol in order to assess bacterial viability. The LOD was 10 CFU/mL. Error bars correspond to ±SEM of three biological replicates. For statistical analysis, p-values were calculated using an unpaired t-test between the untreated group and the peptide-treated group at each time point. ** p < 0.05 and a ≥3-log CFU reduction (with respect to the untreated group).

C. acnes = assay: One-hour killing assay against C. acnes (dose-response; temperature, pH and NaCl variations); type: cell-based, Cutibacterium acnes
Experimental: as §3, §1
To evaluate the effect salt has on the antibacterial activity of the peptide, C. acnes strain ATCC 6919 was treated with P156 in buffer supplemented with 0-500 mM NaCl. The bactericidal potency of P156 in a broad pH range was assayed by treating C. acnes strain ATCC 6919 with the peptide in either 20 mM 2-(N-morpholino) ethanesulfonic acid (MES, pH 5.5–6.5; Fisher Scientific), sodium phosphate buffer (NaPO4, pH 6.5–7.0), or Tris (pH 7.0–8.0).
as §2, §4

[3] = 25 μg/mL, ATCC 6919, 1 h, 37 °C

Compound	antibacterial effect of retinoic acid alone on S. aureus (S. aureus strain USA300; 0.01-0.1% retinoic acid)	log CFU reduction of S. aureus in the presence of 0.01-0.1% retinoic acid (S. aureus strain USA300; P156 at 25 μg/mL, LOD 10 CFU/mL)	stability after four weeks of storage at 4 °C [1]	lowest concentration reducing CFU counts of all S. aureus strains below the LOD (S. aureus; aerobic, strains 8325, USA300, USA400, LOD 10 CFU/mL)	log kill of all S. aureus strains tested (S. aureus; peptide at 5 μg/mL)	log CFU reduction of all S. aureus strains (below LOD) (S. aureus; peptide at 25 μg/mL)	log kill of MRSA strain USA300 grown under anaerobic conditions (S. aureus; peptide at 25 μg/mL, anaerobic, LOD 10 CFU/mL, triplicate)	log reduction in bacterial CFU in 10 min [2]	log reduction in bacterial CFU within 1 min [2]	log reduction of bacterial counts at each temperature assayed (C. acnes; 25 μg/mL, ATCC 6919, 15-40 °C, 1 h, peptide stored four weeks at 4 °C)	bactericidal effect at elevated pH levels (up to 7.6) (C. acnes; [3])	bactericidal effect within pH 6-7 (C. acnes; [3])	log reduction of C. acnes populations in 50 mM NaCl (C. acnes; [3])	log CFU reduction (below LOD) at under 25 mM NaCl / lower salt concentrations (C. acnes; 25 μg/mL, ATCC 6919, 1 h, 37 °C, LOD 10 CFU/mL)	log reduction of C. acnes CFU counts (below LOD) at 20 °C to 40 °C (C. acnes; 25 μg/mL, ATCC 6919, 1 h, peptide stored four weeks at 4 °C, LOD 10 CFU/mL, triplicate)	antibacterial activity at high salt concentrations (C. acnes; 25 μg/mL, ATCC 6919, NaCl, 1 h, 37 °C)	log reduction of CFU counts at ≤50 mM NaCl (C. acnes; 25 μg/mL, ATCC 6919, buffer supplemented with NaCl, 1 h, 37 °C, triplicate)	log kill of all C. acnes strains tested (C. acnes; peptide at 5 μg/mL, seven strains, 20 mM Tris, pH 7.2, 1 h, 37 °C)	log CFU reduction of all C. acnes strains (below LOD) (C. acnes; peptide at 25 μg/mL, 20 mM Tris, pH 7.2, 1 h, 37 °C)	concentration lowering the viability of all C. acnes strains below the LOD (C. acnes; seven strains, 20 mM Tris, pH 7.2, 1 h, 37 °C, LOD 200 CFU/mL, duplicate)
CC1=C(/C=C/C(C)=C/C=C/C(C)=C/C(=O)O)C(C)(C)CCC1 [retinoic acid, all-trans-retinoic acid, reference compound]	no antibacterial effect	–	–	–	–	–	–	–	–	–	–	–	–	–	–	–	–	–	–	–
RRKAKAPRAEIYAQFNKWVYAGGKKLSGLVKRRRR [Peptide P156, variant peptide engineered by adding arginine residues at both the N- and C-terminal ends of the parental peptide PiP01]	–	> 5 log CFU	remains stable and active	5 µg/mL	≥ 3 log	> 4 log CFU	> 5 log	> 5 log	> 3 log	> 4 logs	able to eradicate C. acnes	complete bacterial eradication	3 logs	> 4 log CFU	> 5 logs	lack of antibacterial activity	> 3 log CFU	≥ 3 log	> 4 log CFU	≥ 5 µg/mL
